In patent publication US10463658B2, “Method of inhibiting FLT3 kinase” (AROG Pharmaceuticals, LLC, priority 2013, dated 2019):
Changes are numbered by the printed parent chain.

Assays:
FLT3 (ITD, D835V) = molecular target: T1, FLT3 (ITD, D835V) (Homo sapiens, UniProt P36888, D835V, form not given); experiment: KINOMEscan KdElect competitive binding assay, dual mutant FLT3 (ITD, D835V); conditions: tosylate salt; read-out: Kd, FLT3 (ITD, D835V) double mutant
T1 construct: fused on or other part: DNA tag / T7 phage display tag for qPCR detection
T1 sequence (P36888 1-993 D835V): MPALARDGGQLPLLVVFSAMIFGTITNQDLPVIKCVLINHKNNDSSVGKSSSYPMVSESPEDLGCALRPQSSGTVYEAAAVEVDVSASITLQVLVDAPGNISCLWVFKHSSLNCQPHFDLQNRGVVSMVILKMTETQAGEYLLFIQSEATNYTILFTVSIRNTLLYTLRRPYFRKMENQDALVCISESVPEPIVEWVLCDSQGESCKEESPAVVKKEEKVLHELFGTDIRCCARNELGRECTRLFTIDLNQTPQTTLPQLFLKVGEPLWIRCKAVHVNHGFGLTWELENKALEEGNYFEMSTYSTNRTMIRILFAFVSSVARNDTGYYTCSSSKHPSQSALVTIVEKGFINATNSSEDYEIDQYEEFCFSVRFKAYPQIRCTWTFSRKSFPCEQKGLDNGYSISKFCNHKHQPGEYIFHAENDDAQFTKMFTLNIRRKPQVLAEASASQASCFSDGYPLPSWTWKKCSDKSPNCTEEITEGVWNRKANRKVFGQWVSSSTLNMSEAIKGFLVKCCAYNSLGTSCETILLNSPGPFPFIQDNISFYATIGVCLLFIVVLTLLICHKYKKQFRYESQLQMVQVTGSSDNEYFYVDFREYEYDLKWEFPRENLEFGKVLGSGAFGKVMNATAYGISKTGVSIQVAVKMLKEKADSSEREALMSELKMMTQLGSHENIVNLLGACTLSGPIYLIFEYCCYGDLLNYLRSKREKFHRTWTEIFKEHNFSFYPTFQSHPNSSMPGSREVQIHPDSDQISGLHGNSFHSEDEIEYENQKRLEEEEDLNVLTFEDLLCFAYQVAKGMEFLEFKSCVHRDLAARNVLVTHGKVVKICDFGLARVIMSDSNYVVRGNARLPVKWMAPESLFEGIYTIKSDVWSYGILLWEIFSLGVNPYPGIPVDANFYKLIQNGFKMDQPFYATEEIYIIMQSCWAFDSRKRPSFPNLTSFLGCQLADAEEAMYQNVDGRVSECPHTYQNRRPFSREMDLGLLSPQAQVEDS
Description: (§1) Competitive binding assay.
(§2) The lysates were then centrifuged and filtered.

FLT3 D835Y = molecular target: T2, FLT3 D835Y (Homo sapiens, UniProt P36888, D835Y); experiment: KINOMEscan KdElect competitive binding assay, FLT3 D835Y; conditions: tosylate salt
T2 construct: host or cells: E. coli BL21-derived host (T7 phage) or HEK-293
T2 sequence (P36888 610-943 D835Y limits assumed): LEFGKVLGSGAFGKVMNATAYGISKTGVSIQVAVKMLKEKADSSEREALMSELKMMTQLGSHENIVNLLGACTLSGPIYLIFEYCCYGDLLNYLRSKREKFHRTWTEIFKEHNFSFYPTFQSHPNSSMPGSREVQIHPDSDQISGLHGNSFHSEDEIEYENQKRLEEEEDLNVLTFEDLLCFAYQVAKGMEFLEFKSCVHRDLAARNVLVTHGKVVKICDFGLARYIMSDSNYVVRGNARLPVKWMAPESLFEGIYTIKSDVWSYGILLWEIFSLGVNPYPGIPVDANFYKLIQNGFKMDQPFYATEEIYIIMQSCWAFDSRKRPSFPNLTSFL
Description: as §1, §2

[1] = tested on: Ba/F3 expressing FLT3-D835Y/ITD cells; experiment: Activity against Ba/F3 cells with FLT3-ITD and FLT3-D835Y mutation; type: cell-based; conditions: Mus musculus, BaF3; Ba/F3 FLT-ITD/D835Y cells; read-out: IC50 pFLT3 (text: decreased viability)
FLT3 ITD = molecular target: T3, FLT3 ITD (Homo sapiens, UniProt P36888); experiment: Inhibition of FLT3-ITD phosphorylation by western blot in BaF3 cells transduced to express FLT3; type: cell-based; conditions: Ba/F3 FLT3-ITD cells, tosylate salt, read-out: IC50, inhibition of phosphorylation of the FLT3-ITD receptor
T3 sequence (P36888 1-993): T1 sequence (P36888 1-993 D835V) with V835D
Method: The ability of the tosylate (toluenesulfonate) salt of CP-673,451 to inhibit phosphorylated FLT3 was determined using cell lines expressing FLT3-ITD, including Molm-13 (a human acute myeloid leukemia cell line) and BaF3 (bone marrow-derived pro-B-cell line) cells transduced to express FLT3. The effect was examined by western blot.

- Kd (FLT3 (ITD, D835V)): 0.015 nM
- Kd (FLT3 D835Y): 0.1 nM
- IC50 [1]: 23.8 nM
- IC50 (FLT3 ITD): 5.1 nM
Compound: COCCOc1ccc2c(c1)ncn2-c1ccc2cccc(N3CCC(N)CC3)c2n1 [CP-673,451]
